The record followed here is US12262710B2, “Fungicidal compounds” (SYNGENTA CROP PROTECTION AG, priority 2019, dated 2025).

The test system of assay [1] is Erysiphe graminis f. sp. tritici. The experiment in a line: Erysiphe graminis f. sp. tritici (wheat powdery mildew), wheat leaf segments, preventive. The class given is in vivo. The following applies: Blumeria graminis, foliar, 168 h, 7 dpi, compared to untreated control. As for the experimental part: Wheat leaf segments are placed on agar in multiwell plates (24-well format) and sprayed with test solutions. After drying, the leaf disks are inoculated with spores of the fungus. After appropriate incubation the activity of a compound is assessed 7 dpi (days post inoculation) as preventive fungicidal activity.

The test system of assay [2] is Puccinia recondita f. sp. tritici. The experiment in a line: Puccinia recondita (brown rust), preventative, wheat leaf segments. Type of assay: in vivo. To be noted: foliar, 192 h, 8 dpi, compared to untreated control. As for the experimental part:
Wheat leaf segments are placed on agar in multiwell plates (24-well format) and sprayed with test solutions. After drying, the leaf segments are inoculated with a spore suspension of the fungus. After appropriate incubation the activity of a compound is assessed 8 dpi (days after inoculation) as preventative fungicidal activity.

The subject of another assay is Phytophthora infestans. The experiment in a line: whole plant or invertebrate. Type of assay: in vivo. To be noted: in Solanum lycopersicum, foliar, 96 h, read-out: control of Phytophthora infestans.
The next assay concerns Plasmopara viticola. The experiment in a line: Plasmopara viticola (downy mildew of grapevine), grape vine leaf disks, preventive. To be noted: foliar, 168 h, 7 dpi, compared to untreated control. The class given is in vivo. As for the experimental part:
Grape vine leaf disks are placed on agar in multiwell plates (24-well format) and sprayed with test solutions. After drying, the leaf disks are inoculated with a spore suspension of the fungus. After appropriate incubation the activity of a compound is assessed 7 dpi (days after inoculation) as preventive fungicidal activity.

The test system of a further assay is Glomerella lagenarium. Put plainly: Glomerella lagenarium syn. Colletotrichum lagenarium (anthracnose of cucurbits), liquid culture growth inhibition. The class given is cell-based. To be noted: Colletotrichum orbiculare, nutrient broth (PDB), 72 hrs, photometric at 620 nm, compared to untreated control. The procedure:
Glomerella lagenarium Syn. Colletotrichum lagenarium (Anthracnose of Cucurbits): Conidia of the fungus from cryogenic storage were directly mixed into nutrient broth (PDB potato dextrose broth). A DMSO solution of the test compounds was placed into a microtiter plate (96-well format) and the nutrient broth containing the fungal spores was added to it. The test plates were incubated at 24° C. and the inhibition of growth was determined photometrically after 72 hrs at 620 nm. […]

A further assay has as its system Mycosphaerella arachidis. The experiment in a line: Mycosphaerella arachidis syn. Cercospora arachidicola (brown leaf spot of peanut), liquid culture growth inhibition. The following applies: nutrient broth (PDB), approximately 5-6 days, photometric at 620 nm, compared to untreated control. The class given is cell-based. The procedure:
Conidia of the fungus from cryogenic storage were directly mixed into nutrient broth (PDB potato dextrose broth). A DMSO solution of the test compounds was placed into a microtiter plate (96-well format) and the nutrient broth containing the fungal spores was added to it. The test plates were incubated at 24° C. and the inhibition of growth was determined photometrically after approximately 5-6 […] at 620 nm.

The subject of a further assay is Pyricularia oryzae. The experiment in a line: whole plant or invertebrate. Type of assay: in vivo. To be noted: foliar, 120 h, read-out: control of Pyricularia oryzae.
The subject of a further assay is Monographella nivalis. Put plainly: Monographella nivalis syn. Microdochium nivale (snow mould, foot rot of cereals), liquid culture growth inhibition. The following applies: nutrient broth (PDB), 72 hrs, photometric at 620 nm, compared to untreated control. Type of assay: cell-based. As for the experimental part: Conidia of the fungus from cryogenic storage were directly mixed into nutrient broth (PDB potato dextrose broth). A DMSO solution of the test compounds was placed into a microtiter plate (96-well format) and the nutrient broth containing the fungal spores was added to it. The test plates were incubated at 24° C. and the inhibition of growth was determined photometrically after 72 hrs at 620 nm. […] Cercospora arachidicola (Brown Leaf Spot of Peanut): […]

The subject of the next assay is Phakopsora pachyrhizi. Put plainly: Phakopsora pachyrhizi (soybean rust), soybean leaf disks, preventive. The class given is in vivo. The following applies: foliar, 288 h, approx. 12 dpi, compared to untreated control. The procedure:
Soybean leaf disks are placed on agar in multiwell plates (24-well format) and sprayed with test solutions. After drying, the leaf disks are inoculated with a spore suspension of the fungus. After appropriate incubation the activity of a compound is assessed approx. 12 dpi (days after inoculation) as preventive fungicidal activity.

For assay [3], the system named is Puccinia recondita f. sp. tritici. The experiment in a line: Puccinia recondita (brown rust), curative, wheat leaf segments. The class given is in vivo. To be noted: foliar, 192 h, sprayed 1 day after inoculation, 8 dpi, compared to untreated control. The procedure: Wheat leaf segments are placed on agar in multiwell plates (24-well format). The leaf segments are inoculated with a spore suspension of the fungus and sprayed with test solutions 1 day after inoculation. After appropriate incubation the activity of a compound is assessed 8 dpi (days after inoculation) as curative fungicidal activity.

The test system of another assay is Alternaria solani. The experiment in a line: Alternaria solani (early blight of tomatoes), tomato leaf disks. The class given is in vivo. The following applies: foliar, inoculated 2 days after application, compared to untreated control. The procedure: Alternaria solani (Early Blight of Tomatoes) Tomato leaf disks are placed on agar in multiwell plates (24-well format) and sprayed with the formulated test compound diluted in water. The leaf disks are inoculated with a spore suspension of the fungus 2 days after application. The inoculated leaf disks are incubated at 23° C./21° C.

Take `CO/C=C(\Oc1cc(C2CC(C)(C)CCC2=O)ccc1C)C(=O)OC` (stereo not drawn) [E.5, methyl (Z)-2-[5-(5,5-dimethyl-2-oxo-cyclohexyl)-2-methyl-phenoxy]-3-methoxy-prop-2-enoate]: the pest or weed control at 200 ppm (in assay [1]; in assay [2]; with Phytophthora infestans; with Plasmopara viticola) was at least 80% throughout.

In the case of `CO/C=C(\Oc1cc(C2CCC(F)(F)CC2)ccc1C)C(=O)OC` [E.6, methyl (Z)-2-[5-(4,4-difluorocyclohexyl)-2-methyl-phenoxy]-3-methoxy-prop-2-enoate], the inhibition of growth at 20 ppm in the assay on Glomerella lagenarium, in the assay on Mycosphaerella arachidis and in the assay on Monographella nivalis was at least 80% in each case. For the same compound, the pest or weed control at 200 ppm (in [1]; in assay [2]; in the assay on Pyricularia oryzae; with Plasmopara viticola) was at least 80% in each case.

As to `CO/C=C(\Oc1cc(C2CCC2)ccc1C)C(=O)OC` [E.12, methyl (Z)-2-(5-cyclobuty1-2-methyl-phenoxy)-3-methoxy-prop-2-enoate], the inhibition of growth at 20 ppm with Glomerella lagenarium, in the assay on Mycosphaerella arachidis and in the assay with Monographella nivalis was at least 80% throughout. The pest or weed control at 200 ppm (in assay [1]; in assay [3]; in assay [2]; in the assay on Pyricularia oryzae; in the assay on Plasmopara viticola) was at least 80% throughout. In the assay with Phakopsora pachyrhizi, this compound came in with a pest or weed control at 60 ppm of at least 70%.

As to `CO/C=C(\Oc1cc(C2CC2)ccc1C)C(=O)OC` [E.14, methyl (Z)-2-(5-cyclopropy1-2-methyl-phenoxy)-3-methoxy-prop-2-enoate], the inhibition of growth at 20 ppm in the assay with Glomerella lagenarium, with Mycosphaerella arachidis and in the assay with Monographella nivalis was at least 80% throughout. Moreover, the pest or weed control at 200 ppm (in assay [1]; in assay [2]; in the assay with Plasmopara viticola) was at least 80% throughout. In the assay with Phakopsora pachyrhizi, this compound showed a pest or weed control at 60 ppm of at least 70%.

`CO/C=C(\Oc1cc(C2CCC(=NOC)CC2)ccc1C)C(=O)OC` (stereo not drawn) [E.20, methyl (Z)-3-methoxy-2-[5-(4-methoxyimino-cyclohexyl)-2-methyl-phenoxy]prop-2-enoate]: the inhibition of growth at 20 ppm in the assay on Glomerella lagenarium, in the assay on Mycosphaerella arachidis and with Monographella nivalis was at least 80% each time. Further, the pest or weed control at 200 ppm (in [1]; in assay [3]; in assay [2]; in the assay with Pyricularia oryzae; in the assay on Alternaria solani; with Plasmopara viticola) was at least 80% each time. This compound displayed a pest or weed control at 60 ppm with Phakopsora pachyrhizi of at least 70%.

As to `CCON=C1CCC(c2ccc(C)c(O/C(=C\OC)C(=O)OC)c2)CC1` (stereo not drawn) [E.21, methyl (Z)-2-[5-(4-ethoxyiminocyclohexyl)-2-methyl-phenoxy]-3-methoxy-prop-2-enoate], the inhibition of growth at 20 ppm in the assay on Glomerella lagenarium, in the assay on Mycosphaerella arachidis and in the assay with Monographella nivalis was at least 80% throughout. In addition, the pest or weed control at 200 ppm (in assay [1]; in [3]; in assay [2]; with Pyricularia oryzae; in the assay with Plasmopara viticola) was at least 80% in each case. For the same compound, in the assay on Phakopsora pachyrhizi, the pest or weed control at 60 ppm is at least 70%.

As to `CO/C=C(\Oc1cc(C2CCC(OC(F)F)CC2)ccc1C)C(=O)OC` (stereo not drawn) [E.23, methyl (Z)-2-[5-[4-(difluoromethoxy)cyclohexyl]-2-methyl-phenoxy]-3-methoxy-prop-2-enoate], the inhibition of growth at 20 ppm with Glomerella lagenarium, with Mycosphaerella arachidis and with Monographella nivalis was at least 80% in each case. Besides, the pest or weed control at 200 ppm (in assay [1]; in [2]; in the assay with Pyricularia oryzae; in the assay on Alternaria solani; in the assay on Plasmopara viticola) was at least 80% each time.

As for `CO/C=C(\Oc1cc(C2=CC(C)(C)CCC2=O)ccc1C)C(=O)OC` [F.1, methyl (Z)-2-[5-(3,3-dimethyl-6-oxo-cyclohexen-1-yl)-2-methyl-phenoxy]-3-methoxy-prop-2-enoate], the inhibition of growth at 20 ppm in the assay with Glomerella lagenarium is at least 80%. Moreover, the pest or weed control at 200 ppm (in assay [1]; in assay [2]; in the assay with Pyricularia oryzae; with Alternaria solani; in the assay on Plasmopara viticola) was at least 80% each time.

The compound `CO/C=C(\Oc1cc(C2=CCCCC2)ccc1C)C(=O)OC` [F.2, methyl (Z)-2-[5-(cyclohexen-1-yl)-2-methyl-phenoxy]-3-methoxy-prop-2-enoate] showed an inhibition of growth at 20 ppm in the assay on Glomerella lagenarium of at least 80%. Moreover, the pest or weed control at 200 ppm (in assay [1]; in [3]; in [2]; in the assay with Plasmopara viticola) was at least 80% each time. Moreover, the pest or weed control at 60 ppm in the assay on Phakopsora pachyrhizi was at least 70%.

Regarding `CO/C=C(\Oc1cc(C2=CCC(F)(F)CC2)ccc1C)C(=O)OC` [F.3, methyl (Z)-2-[5-(4,4-difluorocyclohexen-1-yl)-2-methyl-phenoxy]-3-methoxy-prop-2-enoate], the inhibition of growth at 20 ppm with Glomerella lagenarium, with Mycosphaerella arachidis and with Monographella nivalis was at least 80% throughout. The pest or weed control at 200 ppm (in [1]; in assay [2]; in the assay with Plasmopara viticola) was at least 80% each time. Also, the pest or weed control at 60 ppm with Phakopsora pachyrhizi was at least 70%.

Consider `CO/C=C(\Oc1cc(C2=CCCC2)ccc1C)C(=O)OC` [F.4, methyl (Z)-2-[5-(cyclopenten-l-yI)-2-methyl-phenoxy]-3-methoxy-prop-2-enoate], for which the inhibition of growth at 20 ppm with Glomerella lagenarium, with Mycosphaerella arachidis and in the assay on Monographella nivalis was at least 80% throughout. Moreover, the pest or weed control at 200 ppm (in [1]; in assay [2]; in the assay with Plasmopara viticola) was at least 80% each time. The compound also returned a pest or weed control at 60 ppm with Phakopsora pachyrhizi of at least 70%.

As for `CO/C=C(\Oc1cc(C2=CCCCC2)c(F)cc1C)C(=O)OC` [F.6, methyl (Z)-2-[5-(cyclohexen-1-yl)-4-fluoro-2-methyl-phenoxy]-3-methoxy-prop-2-enoate], the inhibition of growth at 20 ppm with Glomerella lagenarium, with Mycosphaerella arachidis and in the assay with Monographella nivalis was at least 80% in each case. The pest or weed control at 200 ppm (in assay [1]; in assay [3]; in assay [2]; in the assay with Plasmopara viticola) was at least 80% in each case. Moreover, in the assay on Phakopsora pachyrhizi, the pest or weed control at 60 ppm was at least 70%.

Regarding `CO/C=C(\Oc1cc(C2=CCC(C(F)F)CC2)ccc1C)C(=O)OC` (stereo not drawn) [F.7, methyl (Z)-2-[5-[4-(difluoromethyl)cyclohexen-1-yl]-2-methyl-phenoxy]-3-methoxy-prop-2-enoate], the inhibition of growth at 20 ppm in the assay with Glomerella lagenarium, with Mycosphaerella arachidis and in the assay with Monographella nivalis was at least 80% throughout. The pest or weed control at 200 ppm (in [1]; in assay [3]; in assay [2]; with Alternaria solani; with Plasmopara viticola) was at least 80% in each case.
